Source: PubChem BioAssay AID651650 (Sanford-Burnham Center for Chemical Genomics, 2012)
pIC50: −log10 of the molar value. Activity calls are given as the source filed them.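 The calls were made as follows: active = mean IC50 below 20 µM in each of the two panels, so potent in both; inactive = the rest.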

Target: Neuropilin-1 (Homo sapiens) (UniProt O14786)
Assay: NRP-1 b1b2 CendR peptide binding inhibitors, dose response, biochemical, FP and AlphaScreen panel (AID 651650)
Details: NRP-1 b1b2 / RPARPAR peptide binding, FP or AlphaScreen
[1] = AlphaScreen, run 1, individual panel run IC50
[2] = FP, run 1, individual panel run IC50
[3] = FP, run 2, individual panel run IC50

Sequence of Neuropilin-1 (Homo sapiens) (O14786 whole entry, looked up): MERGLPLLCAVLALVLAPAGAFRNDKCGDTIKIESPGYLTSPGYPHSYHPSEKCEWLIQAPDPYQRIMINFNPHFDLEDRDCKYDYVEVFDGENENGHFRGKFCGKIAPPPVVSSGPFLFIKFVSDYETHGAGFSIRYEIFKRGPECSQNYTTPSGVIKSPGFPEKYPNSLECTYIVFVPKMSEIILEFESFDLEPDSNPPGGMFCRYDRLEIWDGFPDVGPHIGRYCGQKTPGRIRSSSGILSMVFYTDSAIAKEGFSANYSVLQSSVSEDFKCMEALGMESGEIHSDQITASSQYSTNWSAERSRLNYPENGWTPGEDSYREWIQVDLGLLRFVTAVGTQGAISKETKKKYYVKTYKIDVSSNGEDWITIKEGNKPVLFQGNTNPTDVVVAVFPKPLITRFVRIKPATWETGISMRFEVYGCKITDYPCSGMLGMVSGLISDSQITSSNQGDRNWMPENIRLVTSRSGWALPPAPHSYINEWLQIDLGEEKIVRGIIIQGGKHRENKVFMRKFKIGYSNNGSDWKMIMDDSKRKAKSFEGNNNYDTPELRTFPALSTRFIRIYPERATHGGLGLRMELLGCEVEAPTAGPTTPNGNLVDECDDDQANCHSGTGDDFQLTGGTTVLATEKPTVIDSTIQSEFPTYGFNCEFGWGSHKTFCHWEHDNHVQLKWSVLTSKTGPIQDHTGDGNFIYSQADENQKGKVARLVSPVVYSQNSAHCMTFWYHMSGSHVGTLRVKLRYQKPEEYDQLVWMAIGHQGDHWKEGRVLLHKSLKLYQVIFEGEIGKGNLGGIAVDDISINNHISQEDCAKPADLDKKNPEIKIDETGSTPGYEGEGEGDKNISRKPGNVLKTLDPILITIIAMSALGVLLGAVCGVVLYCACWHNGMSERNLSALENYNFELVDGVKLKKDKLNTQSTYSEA

| SMILES | IC50 (AlphaScreen, mean of runs) | pIC50 [1] | IC50 (FP, mean of runs) | pIC50 [2] | pIC50 [3] | pIC50 (AlphaScreen, mean of runs) |
| --- | --- | --- | --- | --- | --- | --- |
| Cc1cc(C)n(-c2nnc3n2N=C(c2c[nH]c4ccccc24)CS3)n1 | > 100 µM (inactive) | < 4.00 | > 95 µM (inactive) | < 4.02 | < 4.02 | – |
| NC(=O)C1CCN(c2nc(-c3ccc4occc(=O)c4c3)cs2)CC1 | > 100 µM (inactive) | < 4.00 | > 95 µM (inactive) | < 4.02 | < 4.02 | – |
| Cn1c(=O)c2c(nc(OCc3cccnc3)n2Cc2ccccc2)n(C)c1=O | inactive | 4.39 | > 95 µM (inactive) | < 4.02 | < 4.02 | – |
| Cc1cc2c(=O)[nH]cnc2s1 | > 100 µM (inactive) | < 4.00 | > 95 µM (inactive) | < 4.02 | < 4.02 | – |
| O=C1c2cc([N+](=O)[O-])cc3cc([N+](=O)[O-])cc(c23)C(=O)N1c1ccccn1 | > 100 µM (inactive) | < 4.00 | > 95 µM (inactive) | < 4.02 | < 4.02 | – |
| COc1ccc(-c2csc(NCCc3nc4cc(C(=O)NCCCO)ccc4n3Cc3ccc(C)cc3)n2)cc1 | inactive | 4.56 | > 95 µM (inactive) | < 4.02 | < 4.02 | – |
| CN(C)CCOC(c1ccc(Cl)cc1)c1ccccn1 (stereo not given) | > 100 µM (inactive) | < 4.00 | > 95 µM (inactive) | < 4.02 | < 4.02 | – |
| CCOC(=O)Cc1csc(NC(=O)CSc2ncnc3c2cnn3-c2ccccc2Cl)n1 | > 100 µM (inactive) | < 4.00 | > 95 µM (inactive) | < 4.02 | < 4.02 | – |
| COc1ccc(-c2csc(NC(CO)c3nc4ccccc4n3CCCO)n2)cc1 (stereo not given) | > 100 µM (inactive) | < 4.00 | > 95 µM (inactive) | < 4.02 | < 4.02 | – |
| CC(C)(C)C(=O)c1cnc(Nc2ccccc2)s1 | > 100 µM (inactive) | < 4.00 | > 95 µM (inactive) | < 4.02 | < 4.02 | – |
| CCCCOc1ccc(C(=O)N/C(=C/C=C/c2ccccc2)C(=O)NCCCO)cc1 | > 100 µM (inactive) | < 4.00 | > 95 µM (inactive) | < 4.02 | < 4.02 | – |
| CC(C)C(N)c1csc(NC(=O)Nc2cccc(C(F)(F)F)c2)n1 (stereo not given) | > 100 µM (inactive) | < 4.00 | > 95 µM (inactive) | < 4.02 | < 4.02 | – |
| c1ccc(OCCCN2CCCC2)cc1 | > 100 µM (inactive) | < 4.00 | > 95 µM (inactive) | < 4.02 | < 4.02 | – |
| O=C(NCc1ccccc1)c1cccc(S(=O)(=O)N2CCCCC2)c1 | inactive | 4.40 | > 95 µM (inactive) | < 4.02 | < 4.02 | – |
| COc1ccc(NC(=O)C(C)Sc2ccccc2)cc1 (stereo not given) | > 100 µM (inactive) | < 4.00 | > 95 µM (inactive) | < 4.02 | < 4.02 | – |
| OCC1OC(n2cnc3c(/C=C(\O)c4ccccc4)ncnc32)C(O)C1O (stereo not given) | > 100 µM (inactive) | < 4.00 | > 95 µM (inactive) | < 4.02 | < 4.02 | – |
| Cc1ccc(C(=O)Nc2ccccc2-c2ccccc2)cc1S(=O)(=O)Nc1ccccc1 | > 100 µM (inactive) | < 4.00 | > 95 µM (inactive) | < 4.02 | < 4.02 | – |
| COc1ccncc1-c1csc(C(O)c2ccccc2)n1 (stereo not given) | > 100 µM (inactive) | < 4.00 | > 95 µM (inactive) | < 4.02 | < 4.02 | – |
| CC(=O)NC(c1cccc(F)c1)c1nc(-c2cccc(C(F)(F)F)c2)cs1 (stereo not given) | > 100 µM (inactive) | < 4.00 | > 95 µM (inactive) | < 4.02 | < 4.02 | – |
| Cc1cn([C@H]2C[C@H](O)[C@@H](CCC(=O)NCCc3ccc4ccccc4c3)O2)c(=O)[nH]c1=O | > 100 µM (inactive) | < 4.00 | > 95 µM (inactive) | < 4.02 | < 4.02 | – |
| O=c1oc(Nc2ccccc2F)nc2ccccc12 | > 100 µM (inactive) | < 4.00 | > 95 µM (inactive) | < 4.02 | < 4.02 | – |
| COc1cc(Cn2nnc3ccccc32)cc(Br)c1O | > 100 µM (inactive) | < 4.00 | > 95 µM (inactive) | < 4.02 | < 4.02 | – |
| CCNS(=O)(=O)c1ccc(CCC(=O)O)cc1 | > 100 µM (inactive) | < 4.00 | > 95 µM (inactive) | < 4.02 | < 4.02 | – |

| SMILES | IC50 (AlphaScreen, mean of runs) | pIC50 [1] | IC50 (FP, mean of runs) | pIC50 [2] | pIC50 [3] | pIC50 (AlphaScreen, mean of runs) |
| --- | --- | --- | --- | --- | --- | --- |
| CC(C)COC(=O)C1C2C=CC3(CN(C(C)c4ccc(Br)cc4)C(=O)C13)O2 (stereo not given) | > 100 µM (inactive) | < 4.00 | > 95 µM (inactive) | < 4.02 | < 4.02 | – |
| O=C(NCCCN1CCCC(O)C1)c1cc(COc2ccc(F)cc2F)on1 (stereo not given) | > 100 µM (inactive) | < 4.00 | > 95 µM (inactive) | < 4.02 | < 4.02 | – |
| OCC[C@H]1C[C@H](O)[C@@H](O)[C@]2(CCCCO2)O1 | > 100 µM (inactive) | < 4.00 | > 95 µM (inactive) | < 4.02 | < 4.02 | – |
| COc1cc(C(=O)Nc2cc3c(cc2N2CCCCC2)n(C)c(=O)n3C)cc(OC)c1OC | inactive | 4.07 | > 95 µM (inactive) | < 4.02 | < 4.02 | – |
| CC(=O)Nc1cc(F)c2c(c1F)Cc1cc(F)ccc1-2 | inactive | 4.05 | > 95 µM (inactive) | < 4.02 | < 4.02 | – |
| CN(Cc1cnn(C)c1)C(=O)c1cc2ccccc2oc1=O | > 100 µM (inactive) | < 4.00 | > 95 µM (inactive) | < 4.02 | < 4.02 | – |
| C=CCN1C(=O)C2(C(C(=O)OCC)=C(N)Oc3ccccc32)c2c1c1ccccc1oc2=O (stereo not given) | > 100 µM (inactive) | < 4.00 | > 95 µM (inactive) | < 4.02 | < 4.02 | – |
| Cc1cccc(NC(=O)c2ccc(OCc3c(C)noc3C)cc2)c1 | – | 4.75 | > 95 µM (inactive) | < 4.02 | < 4.02 | 4.75 |
| CN(C(=O)COC(=O)c1cnc(Cl)c(Cl)c1)C1CCCCC1 | > 100 µM (inactive) | < 4.00 | > 95 µM (inactive) | < 4.02 | < 4.02 | – |
| CCOC(=O)c1c(=O)n(O)c2ccc(OC)cc2[n+]1[O-] | > 100 µM (inactive) | < 4.00 | > 95 µM (inactive) | < 4.02 | < 4.02 | – |
| CNC(=O)Nc1ccccc1C(=O)NCc1ccccc1 | > 100 µM (inactive) | < 4.00 | > 95 µM (inactive) | < 4.02 | < 4.02 | – |
| O=c1ccsn1Cc1ccccc1 | > 100 µM (inactive) | < 4.00 | > 95 µM (inactive) | < 4.02 | < 4.02 | – |
| CC(CN1CCOCC1)OC(=O)c1ccc2c(c1)OCCO2 (stereo not given) | > 100 µM (inactive) | < 4.00 | > 95 µM (inactive) | < 4.02 | < 4.02 | – |
| Cc1ccccc1Nc1cc(=O)oc2ccccc12 | > 100 µM (inactive) | < 4.00 | > 95 µM (inactive) | < 4.02 | < 4.02 | – |
| COc1ccc(Cn2c3ccc(OC)cc3c3nc4ccccc4nc32)cc1 | inactive | 4.41 | > 95 µM (inactive) | < 4.02 | < 4.02 | – |
| Cc1ccsc1C(=O)N1CCCC(CO)(Cc2ccccc2F)C1 (stereo not given) | > 100 µM (inactive) | < 4.00 | > 95 µM (inactive) | < 4.02 | < 4.02 | – |
| CC(=O)C(=Cc1ccc(Cl)cc1)C(=O)c1ccccc1 | > 100 µM (inactive) | < 4.00 | > 95 µM (inactive) | < 4.02 | < 4.02 | – |
| CCC(=NCCc1ccccc1)c1c(O)n(C2CCCCC2)c(=O)[nH]c1=O | > 100 µM (inactive) | < 4.00 | > 95 µM (inactive) | < 4.02 | < 4.02 | – |
| CCO[C@@H]1OC(C(=O)NCc2ccccc2)=C[C@H](c2ccc(Br)cc2)[C@H]1CCCO | inactive | 4.66 | > 95 µM (inactive) | < 4.02 | < 4.02 | – |
| CCOC(=O)C1=CCN(S(=O)(=O)c2ccccc2Br)C1c1ccccc1 (stereo not given) | > 100 µM (inactive) | < 4.00 | > 95 µM (inactive) | < 4.02 | < 4.02 | – |
| Cc1csc(NC(C)c2nc3cc(C(F)(F)F)ccc3n2CCCO)n1 (stereo not given) | – | 5.07 | > 95 µM (inactive) | < 4.02 | < 4.02 | 5.07 |
| NC1=NC[C@@H](Cc2ccc(O)cc2)N1CCCCC1CCCCC1 | > 100 µM (inactive) | < 4.00 | > 95 µM (inactive) | < 4.02 | < 4.02 | – |
| C[C@@H](NC(=O)c1nc[nH]c1C(=O)NCc1ccccc1)c1ccccc1 | > 100 µM (inactive) | < 4.00 | > 95 µM (inactive) | < 4.02 | < 4.02 | – |
